Experimental data as given in patent US20040087633A1, “Methylidene oxazolidinone compound and preparation method thereof” (Korea Institute of Science and Technology, priority 2002, published 2004).
Values after ≈ are worked out from the molar mass of the structure shown.

How the values were obtained:
Assay in all cases: Anti-microbial activity test in vitro (agar dilution MIC)
CRSA C1062 = format: cell-based, Staphylococcus aureus; details: CRSA C1062; Agar Dilution method, Mueller Hinton Agar, 18 hours at 37° C.
Method: (§1) Anti-microbial activity test in vitro
(§2) Strains were cultivated for 18 hours at 37° C. in Agar Dilution method using Mueller Hinton Agar, and then plane plates inoculated with the strains by diluting them two times gradually were aligned in a row. Minimum inhibition concentration (MIC, μg/ml) for the representative compounds of the present invention, Linezolid (LZD) and vancomycin (VAN) were decided through visual observation, and the results are shown in the following tables 2 and 3.

CRSA C6043 = format: cell-based, Staphylococcus aureus; details: CRSA C6043; Agar Dilution method, Mueller Hinton Agar, 18 hours at 37° C.
Method: as §1, §2

MRSA C2207 = format: cell-based, Staphylococcus aureus; details: MRSA C2207; Agar Dilution method, Mueller Hinton Agar, 18 hours at 37° C.
Method: as §1, §2

MRSA C5100 = format: cell-based, Staphylococcus aureus; details: MRSA C5100; Agar Dilution method, Mueller Hinton Agar, 18 hours at 37° C.
Method: as §1, §2

MRSA C6068 = format: cell-based, Staphylococcus aureus; details: MRSA C6068; Agar Dilution method, Mueller Hinton Agar, 18 hours at 37° C.
Method: as §1, §2

MSSA C2214 = format: cell-based, Staphylococcus aureus; details: MSSA C2214; Agar Dilution method, Mueller Hinton Agar, 18 hours at 37° C.
Method: as §1, §2

MSSA C7142 = format: cell-based, Staphylococcus aureus; details: MSSA C7142; Agar Dilution method, Mueller Hinton Agar, 18 hours at 37° C.
Method: as §1, §2

E. faecalis ATCC29212 = format: cell-based; details: E. faecalis ATCC29212; Agar Dilution method, Mueller Hinton Agar, 18 hours at 37° C.
Method: as §1, §2

E. faecalis C6288 = format: cell-based; details: E. faecalis C6288; Agar Dilution method, Mueller Hinton Agar, 18 hours at 37° C.
Method: as §1, §2

E. faecalis C6291 = format: cell-based; details: E. faecalis C6291; Agar Dilution method, Mueller Hinton Agar, 18 hours at 37° C.
Method: as §1, §2

E. faecium C2252 = format: cell-based; details: E. faecium C2252; Agar Dilution method, Mueller Hinton Agar, 18 hours at 37° C.
Method: as §1, §2

E. faecium C6301 = format: cell-based; details: E. faecium C6301; Agar Dilution method, Mueller Hinton Agar, 18 hours at 37° C.
Method: as §1, §2

S. aureus ATCC 29213 = format: cell-based; details: Agar Dilution method, Mueller Hinton Agar, 18 hours at 37° C.
Method: as §1, §2

S. epidermidis ATCC12228 = format: cell-based; details: S. epidermidis ATCC12228; Agar Dilution method, Mueller Hinton Agar, 18 hours at 37° C.
Method: as §1, §2

S. epidermidis C2230 = format: cell-based; details: S. epidermidis C2230; Agar Dilution method, Mueller Hinton Agar, 18 hours at 37° C.
Method: as §1, §2

S. epidermidis C2235 = format: cell-based; details: S. epidermidis C2235; Agar Dilution method, Mueller Hinton Agar, 18 hours at 37° C.
Method: as §1, §2

S. pyogenes ATCC8668 = format: cell-based; details: S. pyogenes ATCC8668; Agar Dilution method, Mueller Hinton Agar, 18 hours at 37° C.
Method: as §1, §2

S. pyogenes C6003 = format: cell-based; details: S. pyogenes C6003; Agar Dilution method, Mueller Hinton Agar, 18 hours at 37° C.
Method: as §1, §2

S. pyogenes C6012 = format: cell-based; details: S. pyogenes C6012; Agar Dilution method, Mueller Hinton Agar, 18 hours at 37° C.
Method: as §1, §2

VRE C6487 = format: cell-based, Enterococcus faecium; details: VRE C6487; Agar Dilution method, Mueller Hinton Agar, 18 hours at 37° C.
Method: as §1, §2

VRE C6488 = format: cell-based, Enterococcus faecium; details: VRE C6488; Agar Dilution method, Mueller Hinton Agar, 18 hours at 37° C.
Method: as §1, §2

Row | Minimum inhibition concentration (MIC) (CRSA C1062) [µg/mL] | Minimum inhibition concentration (MIC) (CRSA C6043) [µg/mL] | Minimum inhibition concentration (MIC) (MRSA C2207) [µg/mL] | Minimum inhibition concentration (MIC) (MRSA C5100) [µg/mL] | Minimum inhibition concentration (MIC) (MRSA C6068) [µg/mL] | Minimum inhibition concentration (MIC) (MSSA C2214) [µg/mL] | Minimum inhibition concentration (MIC) (MSSA C7142) [µg/mL] | Minimum inhibition concentration (MIC) (E. faecalis ATCC29212) [µg/mL] | Minimum inhibition concentration (MIC) (E. faecalis C6288) [µg/mL] | Minimum inhibition concentration (MIC) (E. faecalis C6291) [µg/mL] | Minimum inhibition concentration (MIC) (E. faecium C2252) [µg/mL] | Minimum inhibition concentration (MIC) (E. faecium C6301) [µg/mL] | Minimum inhibition concentration (MIC) (S. aureus ATCC 29213) [µg/mL] | Minimum inhibition concentration (MIC) (S. epidermidis ATCC12228) [µg/mL] | Minimum inhibition concentration (MIC) (S. epidermidis C2230) [µg/mL] | Minimum inhibition concentration (MIC) (S. epidermidis C2235) [µg/mL] | Minimum inhibition concentration (MIC) (S. pyogenes ATCC8668) [µg/mL] | Minimum inhibition concentration (MIC) (S. pyogenes C6003) [µg/mL] | Minimum inhibition concentration (MIC) (S. pyogenes C6012) [µg/mL] | Minimum inhibition concentration (MIC) (VRE C6487) [µg/mL] | SMILES | further results
1 | 16 (≈ 36.9 µM) | 8 (≈ 18.5 µM) | 16 (≈ 36.9 µM) | 8 (≈ 18.5 µM) | 8 (≈ 18.5 µM) | 16 (≈ 36.9 µM) | 8 (≈ 18.5 µM) | 16 (≈ 36.9 µM) | 16 (≈ 36.9 µM) | 8 (≈ 18.5 µM) | 8 (≈ 18.5 µM) | 8 (≈ 18.5 µM) | 16 (≈ 36.9 µM) | 4 (≈ 9.23 µM) | 16 (≈ 36.9 µM) | 8 (≈ 18.5 µM) | 8 (≈ 18.5 µM) | 4 (≈ 9.23 µM) | 16 (≈ 36.9 µM) | 1 (≈ 2.31 µM) | CCOC(=O)C(C)=C1CCN(c2ccc(N3C[C@H](CNC(C)=O)OC3=O)cc2F)CC1 [Compound 13, N-[[(5S)-3-[3-fluoro-4-(4-(1-ethoxycarbonylethylidene)-piperidinyl)phenyl]-2-oxo-5-oxazolidinyl]methyl]acetamide] | Minimum inhibition concentration (MIC) (VRE C6488): 8 µg/mL (≈ 18.5 µM)
2 | 4 (≈ 9 µM) | 4 (≈ 9 µM) | 4 (≈ 9 µM) | 4 (≈ 9 µM) | 4 (≈ 9 µM) | 4 (≈ 9 µM) | 4 (≈ 9 µM) | 4 (≈ 9 µM) | 4 (≈ 9 µM) | 4 (≈ 9 µM) | 4 (≈ 9 µM) | 2 (≈ 4.5 µM) | 4 (≈ 9 µM) | 1 (≈ 2.25 µM) | 2 (≈ 4.5 µM) | 2 (≈ 4.5 µM) | 1 (≈ 2.25 µM) | 4 (≈ 9 µM) | 1 (≈ 2.25 µM) | 2 (≈ 4.5 µM) | CCOC(=O)C(C#N)=C1CCN(c2ccc(N3C[C@H](CNC(C)=O)OC3=O)cc2F)CC1 [Compound 7, N-[[(5S)-3-[3-fluoro-4-((4-(1-ethoxycarbonyl-1-cyano)-methylidene)piperidinyl)phenyl]-2-oxo-5-oxazolidinyl]methyl]acetamide] | Minimum inhibition concentration (MIC) (VRE C6488): 2 µg/mL (≈ 4.5 µM)
